Experimental data published in patent US20130096100A1, “DI(ARYLAMINO)ARYL COMPOUND” (ASTELLAS PHARMA INC., priority 2007, published 2013).

Experiments:
[1] = system: human non-small cell lung cancer cell line NCI-H2228 cells (EML4-ALK fusion protein-expressing cells); assay: Inhibitory effect against anchorage-independent cell growth of NCI-H2228 cells (Test Example 3); assay type: cell-based; conditions: 120 h, spheroid plate, 5 days, CellTiter-Glo
Source text: Measurement for anchorage-independent cell growth (colony method, etc) has been known to be a system for investigating the anticancer action (pharmacological effect) of test compounds (Clinical Oncology, second edition, Cancer and Chemotherapy Publishers Inc.). In place of the colony method, there is a following method using spheroid plates for measuring the growth of non-attached cells.
(§1) In a 96-well spheroid plate (Sumilon Celltight Spheroid 96U; Sumitomo Bakelite Co., Ltd., Japan), human non-small cell lung cancer cell line NCI-H2228 cells were seeded at 2000 cells per well in RPMI1640 medium (Invitrogen) containing 10% fetal bovine serum. NCI-H2228 cells are those expressing another EML4-ALK fusion protein, which is different from the EML4-ALK fusion protein v1 because it is encoded by an EML4-ALK fusion polynucleotide whose fusion point on EML4 cDNA is different from that of the EML4-ALK fusion polynucleotide v1, but whose ALK region is the same as that of the EML4-ALK fusion polynucleotide v1. The above NCI-H2228 cells seeded in the plate were cultured overnight under 5% CO2 at 37° C., followed by addition of a test compound (final concentration: 10 μM to 1 nM). As a negative control, DMSO used as a solvent was added at the same concentration as the test compound. Then, the cells were cultured under 5% CO2 at 37° C. for 5 days. A cell counting reagent (CellTiter-Glo™ Luminescent Cell Viability Assay; Promega) was added and agitated for 20 minutes, followed by measurement with a luminometer (ML3000 microtiter plate luminometer; Dynatech Laboratories).

[2] = system: human non-small cell lung cancer cell line HCC827 cells (mutant EGFR protein-expressing cells); assay: Inhibitory effect against anchorage-independent cell growth of HCC827 cells (Test Example 4); assay type: cell-based; conditions: 120 h, spheroid plate, 5 days, CellTiter-Glo
Experimental: as §1
Evaluation of Inhibitory Effect Against Anchorage-Independent Cell Growth of Human Non-Small Cell Lung Cancer Cell Line HCC827 Cells (Mutant EGFR (with Partial Deletion of Exon 19 in EGFR) Protein-Expressing Cells, American Type Culture Collection)
Evaluation was performed in the same manner as shown in Test Example 3.

NCI-H2228 cells (tumor) = assay: Antitumor test (in vivo) on NCI-H2228 cells (Test Example 8); conditions: oral 3 mg/kg once a day for 14 days, NOD/SCID mice; tumor volume
Experimental: 3×10^6 cells of NCI-H2228 cells suspended in PBS were inoculated subcutaneously by injection to the back of 5 weeks old male NOD/SCID mice (Charles River Japan, Inc.). After 3 weeks of the inoculation, the administration of test compounds was initiated. The test was conducted in the solvent group and test compound groups, 6 animals per group. The test compounds were each dissolved in a solvent composed of 10% 1-methyl-2-pyrrolidinone (SIGMA-ALDRICH Inc.)/90% polyethylene glycol 300 (Fluka Inc.) and administered orally at a dose of 3 mg/kg. Administrations were performed once a day for 14 days, and body weight and tumor size were measured every other day. Tumor volume was calculated using the following formula.
[Tumor volume (mm^3)]=[Tumor major axis (mm)]×[tumor minor axis (mm)]^2×0.5

MUSK = molecular target: T1, MUSK (Homo sapiens, UniProt O15146); assay: Kinase inhibition profiling, MUSK (Test Example 6); assay type: biochemical; set-up: purchased Carna Biosciences Inc., Japan (contract measurement); conditions: 100 nM; read-out: inhibitory activity against MUSK
T1 sequence (O15146 24-869): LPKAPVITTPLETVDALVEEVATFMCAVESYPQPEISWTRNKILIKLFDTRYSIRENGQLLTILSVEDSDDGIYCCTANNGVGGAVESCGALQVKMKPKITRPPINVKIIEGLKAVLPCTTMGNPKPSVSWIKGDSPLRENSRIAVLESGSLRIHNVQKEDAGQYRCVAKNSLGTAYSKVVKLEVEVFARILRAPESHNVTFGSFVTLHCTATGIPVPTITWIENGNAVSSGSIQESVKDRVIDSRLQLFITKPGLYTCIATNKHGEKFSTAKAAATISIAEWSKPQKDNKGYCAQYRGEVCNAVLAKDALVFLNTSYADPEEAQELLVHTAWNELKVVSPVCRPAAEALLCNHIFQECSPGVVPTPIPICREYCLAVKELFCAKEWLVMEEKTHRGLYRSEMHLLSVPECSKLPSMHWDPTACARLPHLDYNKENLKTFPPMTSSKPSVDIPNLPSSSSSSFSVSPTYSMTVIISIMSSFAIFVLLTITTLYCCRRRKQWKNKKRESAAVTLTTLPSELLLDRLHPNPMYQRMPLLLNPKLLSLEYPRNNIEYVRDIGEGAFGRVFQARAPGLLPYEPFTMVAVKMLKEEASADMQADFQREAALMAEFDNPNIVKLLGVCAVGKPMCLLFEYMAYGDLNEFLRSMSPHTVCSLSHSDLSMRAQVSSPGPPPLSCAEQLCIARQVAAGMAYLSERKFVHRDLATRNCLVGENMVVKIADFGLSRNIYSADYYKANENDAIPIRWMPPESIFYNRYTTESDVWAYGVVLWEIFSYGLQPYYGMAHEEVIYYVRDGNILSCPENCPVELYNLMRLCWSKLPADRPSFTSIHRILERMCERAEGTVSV

Compound | IC50 [1] [nM] | IC50 [2] [nM] | inhibition of the growth of NCI-H2228 cells (tumor) (NCI-H2228 cells (tumor)) [%] | inhibition at 0.1 µM (MUSK) [%]
COc1cc(N2CCC(N3CCN(C)CC3)CC2)ccc1Nc1ncnc(Nc2ccccc2S(=O)(=O)C(C)C)n1 [Example 23] | 71 | 272 | 116 | < 20
CCNS(=O)(=O)c1ccccc1Nc1ncnc(Nc2ccc(N3CCC(N4CCN(C)CC4)CC3)cc2OC)n1 [Example 123] | 30 | 238 | 108 | –
